Biological target: T1, dopamine D3 receptor (D3), Sf9 (Homo sapiens, UniProt P35462)
T1 construct: gene DRD3; full-length from pCMV5-hD3, no tag mentioned; membranes of Sf9 cells (baculovirus)
Test: [3H]spiperone competition binding, Sf9 membranes
Settings: read-out: D3 / + NaCl

T1 sequence (P35462 whole entry): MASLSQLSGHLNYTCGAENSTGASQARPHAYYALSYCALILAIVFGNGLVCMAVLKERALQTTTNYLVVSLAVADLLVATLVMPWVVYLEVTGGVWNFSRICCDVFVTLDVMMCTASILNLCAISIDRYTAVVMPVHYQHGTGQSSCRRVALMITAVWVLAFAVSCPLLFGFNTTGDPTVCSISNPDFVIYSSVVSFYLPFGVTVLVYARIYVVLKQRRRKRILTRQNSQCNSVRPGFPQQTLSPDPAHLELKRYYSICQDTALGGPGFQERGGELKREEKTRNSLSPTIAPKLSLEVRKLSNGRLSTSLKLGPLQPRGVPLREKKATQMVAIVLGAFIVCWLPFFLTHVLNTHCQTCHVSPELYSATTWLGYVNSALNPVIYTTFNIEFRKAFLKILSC

Compound | IC50 [µM]
COc1ccccc1N1CCN(CCCCNC(=O)c2ccc(-c3ccc(C(C)=O)cc3)cc2)CC1 [GR 103691] | 0.00046
CCCN(CCC)C1Cc2cc(OC)c(OC)cc2C1 [U 99194] | 0.532

— publication PMC4933336, “Examining the Effects of Sodium Ions on the Binding of Antagonists to Dopamine D2 and D3 Receptors” (PLoS ONE, 2016)
